In article PMC12040169 (PLOS Biology, 2025):

Test: in vitro
Conditions: human, hela cells, % viability

Going from `Fc1ccc(-n2c(C3CC3)n[nH]c2=S)cc1Cl` [CBK288364] to `CC1(C)N=C(c2ccc(Cl)cc2Cl)C(=S)N1` [CBK288449], the viability at 28.5 h, 10 µM falls from 96.7% to 88.3%.

Compared with `OCCCCn1c(-c2cccnc2)n[nH]c1=S` [CBK288365], `COCc1cc2n[nH]c(=O)n2c(-c2ccccc2)n1` [CBK288507] is higher in viability at 28.5 h, 10 µM: 88.6% for the first, 98.3% for the second.

First: O=C(NCCCN1CCOCC1)/C(=N\O)c1ccccn1 [CBK288366]
Second: Cc1ccccc1C(=O)NC(=S)NCCN1CCOCC1 [CBK288475]
The viability at 28.5 h, 10 µM of the first is lower: 94.1% for the first, 94.5% for the second.

Going from `NCCCc1c(-c2ccc(Cl)cc2Cl)[nH][nH]c1=O` [CBK288367] to `CN(C)c1ccc(-c2[nH][nH]c(=O)c2CCCN)cc1` [CBK288406], the viability at 28.5 h, 10 µM rises from 86.8% to 105%.

First: CNC(=S)Nc1ncn(Cc2cccc(F)c2)n1 [CBK288368]
Second: CNC(=S)NCc1nc(-c2ccc(C)cc2)no1 [CBK288418]
The viability at 28.5 h, 10 µM of the first is higher: 106% for the first, 97.3% for the second.

Going from `NC(=S)N1N=C2CCCCC2C1c1ccccc1` (centres unmarked) [CBK288371] to `NC(=S)N1N=C(c2ccccc2)CC1c1ccccc1` (centres unmarked) [CBK288435], the viability at 28.5 h, 10 µM rises from 84.2% to 95.6%.

Compared with `CC(C)CCC1(CN2CCCC2=O)C(=O)NC(=O)NC1=O` [CBK288372], `COc1ccccc1CN1CCc2[nH]c(=S)[nH]c(=O)c2C1` [CBK288495] is higher in viability at 28.5 h, 10 µM: 90.5% for the first, 104% for the second.

Going from `CCN(CC)CCNC(=O)c1ccc(/C=N/O)nc1` [CBK288375] to `CCN(CC)CCNC(=O)/C(=N\O)c1ccccc1` [CBK288408], the viability at 28.5 h, 10 µM rises from 100% to 106%.

First: O=C1c2ccccc2NC(c2ccccc2F)N1O (centres unmarked) [CBK288377]
Second: O=C1c2ccccc2NC(c2cccc(O)c2)N1O (centres unmarked) [CBK288426]
The viability at 28.5 h, 10 µM of the first is lower: 93.4% for the first, 98.2% for the second.

First: N#Cc1cc2c([nH]c1=S)CCN(Cc1ccccc1)C2 [CBK288378]
Second: CCOc1ccc(-c2ccc(C#N)c(=S)[nH]2)cc1 [CBK288470]
The viability at 28.5 h, 10 µM of the first is higher: 90.3% for the first, 88.2% for the second.

Compared with `COc1ccc(Cl)cc1-n1c(-c2ccc3ccccc3n2)n[nH]c1=S` [CBK288382], `Oc1ccccc1-c1n[nH]c(=S)n1-c1ccc(OC(F)(F)F)cc1` [CBK288384] is lower in viability at 28.5 h, 10 µM: 95.4% for the first, 85.9% for the second.

First: CC(=O)N1CCN(Cc2oc(C)cc(=O)c2O)CC1 [CBK288383]
Second: O=c1cc(CO)oc(CN2CCSCC2)c1O [CBK288404]
The viability at 28.5 h, 10 µM of the first is higher: 91.6% for the first, 89% for the second.

Compared with `COc1cccc(NC(=O)c2cc3ccccc3o/c2=N\O)c1` [CBK288387], `CC(=O)NC(=S)Nc1ccc(Oc2ccccc2)cc1` [CBK288454] is higher in viability at 28.5 h, 10 µM: 86% for the first, 86.6% for the second.

Compared with `CCOc1ccc(Cc2nnc(S)n2C2CC2)cc1OCC` [CBK288388], `COCc1nnc(S)n1-c1cccc(OC)c1` [CBK288424] is higher in viability at 28.5 h, 10 µM: 66.4% for the first, 87.7% for the second.

First: Cc1cccc(NC(=O)c2ccc3n[nH]c(=S)n3c2)c1 [CBK288389]
Second: Cc1cc(N2CCOCC2)nc2ccc(NC(=O)c3ccncc3)cc12 [CBK288587]
The viability at 28.5 h, 10 µM of the first is lower: 88% for the first, 99.3% for the second.

Going from `CC1(C)CC(=O)C(C(=S)Nc2ccccc2)=C(O)C1` [CBK288395] to `CCc1ccccc1NC(=S)Nc1cccc(C)n1` [CBK288415], the viability at 28.5 h, 10 µM rises from 95.3% to 103%.

First: Cc1ccc(C(=O)O)cc1NC(=S)NC1CC1 [CBK288397]
Second: S=C(Nc1nc2c(s1)CCCC2)NC1CC1 [CBK288425]
The viability at 28.5 h, 10 µM of the first is higher: 94.4% for the first, 90.1% for the second.

Compared with `O=C1CNC(=S)N1c1cccc(C(F)(F)F)c1` [CBK288398], `O=C(/C=N/O)Nc1cc(C(F)(F)F)ccc1Cl` [CBK288405] is higher in viability at 28.5 h, 10 µM: 104% for the first, 107% for the second.

First: O=C(Nc1ccccc1)N(O)CC(O)COc1ccccc1 (centres unmarked) [CBK288399]
Second: O=C(NCc1ccccc1)/C(=N\O)c1ccccc1 [CBK288427]
The viability at 28.5 h, 10 µM of the first is lower: 90.7% for the first, 91.9% for the second.

First: Cn1c(=O)c2c(nc(S)n2CCCc2ccccc2)n(C)c1=O [CBK288411]
Second: Cn1c(=O)c2c(=S)[nH]c(-c3ccccc3)nc2n(C)c1=O [CBK288422]
The viability at 28.5 h, 10 µM of the first is higher: 105% for the first, 103% for the second.

First: Sc1nnc(C2CCCC2)n1CC1CCCO1 (centres unmarked) [CBK288413]
Second: O=C(Cc1nc(-c2ccncc2)n[nH]1)NC1CCCCC1 [CBK288544]
The viability at 28.5 h, 10 µM of the first is lower: 107% for the first, 110% for the second.

First: O=C(NCc1cccnc1)/C(=N\O)c1ccccc1 [CBK288416]
Second: O=C1/C(=N\O)c2ccccc2N1Cc1ccccc1 [CBK288484]
The viability at 28.5 h, 10 µM of the first is higher: 102% for the first, 99.7% for the second.

Compared with `CC1CN(C)C(c2ccccc2)C(C)C12NC(=O)N=C2O` (centres unmarked) [CBK288428], `CC(C)(C)OC(=O)N1CCC2(CC1)N=C(c1ccccc1)C(=S)N2` [CBK288478] is higher in viability at 28.5 h, 10 µM: 88.1% for the first, 112% for the second.

Compared with `Sc1nnc(-c2cccc(Br)c2)o1` [CBK288432], `Cc1ccc(-c2n[nH]c(=O)o2)cc1Br` [CBK288443] is lower in viability at 28.5 h, 10 µM: 101% for the first, 85.9% for the second.

First: COc1cccc(-c2cc3c(=S)[nH]ccn3n2)c1 [CBK288437]
Second: COc1ccc(-c2[nH]c(=S)ncc2-c2ccccc2)c(O)c1 [CBK288447]
The viability at 28.5 h, 10 µM of the first is lower: 88% for the first, 91.5% for the second.

Compared with `COc1ccc(-c2cc3n[nH]c(=O)n3c(C)n2)cc1` [CBK288439], `CCc1ccc(-c2cc3c(=O)[nH]nc(S)n3n2)cc1` [CBK288485] is higher in viability at 28.5 h, 10 µM: 91.1% for the first, 124% for the second.

Compared with `Cc1cc(-c2c(C)n(-c3ccccc3)[nH]c2=O)n2ncnc2n1` [CBK288441], `Cn1c(=S)[nH]c2c(-c3ccccc3)c[nH]c2c1=O` [CBK288488] is higher in viability at 28.5 h, 10 µM: 89.4% for the first, 103% for the second.

Going from `O=C1CCCC2=C1C(c1ccccc1O)c1c([nH][nH]c1=O)N2` (centres unmarked) [CBK288442] to `O=C(CCCCCN1C(=O)c2ccccc2C1=O)NO` [CBK288514], the viability at 28.5 h, 10 µM falls from 90.2% to 80.2%.

First: O=C(O)CCCCCNC(=S)Nc1cccc(Cl)c1 [CBK288446]
Second: CCCCC(=O)Nc1ccc(S(N)(=O)=O)cc1 [CBK288490]
The viability at 28.5 h, 10 µM of the first is lower: 88.1% for the first, 113% for the second.

First: O=C1NC(=O)C(c2ccccc2)(c2ccccn2)N1 (centres unmarked) [CBK288455]
Second: CCN1CCCC1CNC(=O)C1(O)c2ccccc2NC(=O)N1c1ccccc1 (centres unmarked) [CBK288554]
The viability at 28.5 h, 10 µM of the first is higher: 97% for the first, 90.5% for the second.

Going from `COc1ccc(CCNC(=O)C(N)=O)cc1OC` [CBK288457] to `NS(=O)(=O)c1ccc(CCNCC2CCCCC2)cc1` [CBK288467], the viability at 28.5 h, 10 µM rises from 90.9% to 92.5%.

First: O=c1[nH]nc2c(S(=O)(=O)N3CCCC3)cccn12 [CBK288460]
Second: O=c1[nH]nc2c(Sc3cccc(F)c3)nccn12 [CBK288508]
The viability at 28.5 h, 10 µM of the first is lower: 85.9% for the first, 90.4% for the second.

Compared with `Cc1cc(N2C(=O)NS(=O)(=O)c3cccnc32)ccc1F` [CBK288461], `O=c1[nH]nc2cc(NCc3ccc(Cl)cc3)ncn12` [CBK288479] is higher in viability at 28.5 h, 10 µM: 90.5% for the first, 114% for the second.

Going from `O=C1/C(=N\O)c2cc(Cl)ccc2N1Cc1ccccc1` [CBK288468] to `O=C(O)c1ccc(COc2cccc(/C=N\O)c2)cc1` [CBK288501], the viability at 28.5 h, 10 µM rises from 91.5% to 91.9%.

Compared with `COc1ccccc1CNc1ccc(S(N)(=O)=O)cc1` [CBK288476], `CCN(CC)CCOC(=O)NS(=O)(=O)c1ccc(Cl)cc1` [CBK288510] is higher in viability at 28.5 h, 10 µM: 92.7% for the first, 97.6% for the second.

Going from `CN(CCCNC(=O)/C=N/O)CCCC(C)(C)C` [CBK288480] to `CNc1nc(N(C)C)nc(-n2cnc(SCCOc3ccccc3C)n2)n1` [CBK288564], the viability at 28.5 h, 10 µM falls from 110% to 92.4%.

Going from `S=c1[nH]cnc2c1[nH]c1ccc(Br)cc12` [CBK288487] to `S=c1cc(SCc2ccccc2Cl)nc[nH]1` [CBK288496], the viability at 28.5 h, 10 µM falls from 102% to 95.2%.

First: CCCOc1ccc(Br)cc1/C=N/O [CBK288491]
Second: O=C(NCc1ccc2c(c1)CCN2C(=O)c1ccncc1)c1cccnc1 [CBK288585]
The viability at 28.5 h, 10 µM of the first is higher: 110% for the first, 91.4% for the second.

Going from `O=C(NC(=S)N1C[C@@H]2C[C@@H](C1)c1cccc(=O)n1C2)c1ccco1` [CBK288492] to `O=C(NCc1ccc2c(c1)CCN2C(=O)c1ccncc1)c1cccc(F)c1` [CBK288586], the viability at 28.5 h, 10 µM falls from 110% to 102%.

First: N#CC1C(=S)NC2=C(CCCC2)C12CCCCC2 (centres unmarked) [CBK288493]
Second: CSc1nnc2n3ncnc3c3c4c(sc3n12)CCCC4C (centres unmarked) [CBK288542]
The viability at 28.5 h, 10 µM of the first is higher: 103% for the first, 97.3% for the second.

Compared with `Cc1nnc(S)n(Cc2ccc(F)cc2)c1=O` [CBK288502], `Fc1ccc(Cn2nnc(-c3ccncc3)n2)c(Cl)c1` [CBK288534] is lower in viability at 28.5 h, 10 µM: 106% for the first, 102% for the second.

Compared with `O=c1c([N+](=O)[O-])c[nH]c2nc(-c3ccncc3)nn12` [CBK288531N], `O=[N+]([O-])c1ccc2c(c1)C(O)n1nc(-c3ccncc3)nc1S2` (centres unmarked) [CBK288533] is higher in viability at 28.5 h, 10 µM: 87.8% for the first, 94.7% for the second.

Going from `Cc1nc(N)sc1-c1csc(Nc2ccc(Cl)cn2)n1` [CBK288532] to `CCNc1n[nH]c(N)c1-c1nc(-c2ccc(OC)cc2)no1` [CBK288557], the viability at 28.5 h, 10 µM rises from 61.4% to 94.2%.

Compared with `O=c1oc2ccccc2c2nc(-c3ccncc3)ncc12` [CBK288536], `Cc1ccc(N2CC(c3nc(-c4ccncc4)no3)CC2=O)cc1Cl` (centres unmarked) [CBK288582] is higher in viability at 28.5 h, 10 µM: 108% for the first, 109% for the second.

Compared with `Nc1[nH]ncc1-c1nnc(Nc2ccc3c(c2)OCO3)o1` [CBK288537], `Clc1ccc(Nc2nnc(-c3[nH]ncc3NCc3ccncc3)o2)cc1` [CBK288588] is higher in viability at 28.5 h, 10 µM: 85.1% for the first, 99% for the second.

Compared with `O=c1[nH]cccc1-c1noc(-c2cnccn2)n1` [CBK288538], `Nc1ncnc2nc(-c3ccncc3)nn12` [CBK288550] is higher in viability at 28.5 h, 10 µM: 90% for the first, 102% for the second.

First: Cc1nc(-c2ccncc2)c2c(C)nn(-c3ccc(F)cc3)c2n1 [CBK288545]
Second: CC(=O)c1c(C)nc2nc(-c3ccncc3)nn2c1C [CBK288552]
The viability at 28.5 h, 10 µM of the first is lower: 89.2% for the first, 106% for the second.

Going from `Cc1c(-c2ccnc(N3CCOCC3)n2)cnc2nc(-c3ccncc3)nn12` [CBK288551] to `c1ccc2c(c1)OCC(c1nn3c(-c4ccncc4)nnc3s1)O2` (centres unmarked) [CBK288560], the viability at 28.5 h, 10 µM rises from 98.6% to 107%.

Same assay, conditions: human, hela cells, % viability, bulk resorufin, single well

Going from `O=C1NC(=O)C(CCc2ccncc2)(c2ccccc2)C(=O)N1` [CBK288431] to `NC(=O)C(=O)c1cn(Cc2ccccc2)c2ccccc12` [CBK288473], the viability at 28.5 h, 10 µM falls from 96.9% to 96.2%.
